Converted amounts (≈) assume the structure as drawn. The source made the active and inactive calls. No cut-off for these calls is given here.
How the values were obtained:
Staphylococcus aureus [1] = experiment: Antimicrobial activity against Staphylococcus aureus; assay type: functional
Staphylococcus aureus [2] = experiment: Antimicrobial activity against Staphylococcus aureus expressing mgrA C12S mutant gene; assay type: functional
Staphylococcus aureus [3] = experiment: Antimicrobial activity against Staphylococcus aureus assessed as visible growth at 0.35 ug/ml after 24 hrs; assay type: functional, organism-based
Staphylococcus aureus [4] = experiment: Antimicrobial activity against Staphylococcus aureus assessed as visible growth at 0.35 ug/ml after 24 hrs in presence of 20 uM paraquat; assay type: functional, organism-based
Staphylococcus aureus [5] = experiment: Antimicrobial activity against Staphylococcus aureus assessed as visible growth at 0.55 ug/ml after 24 hrs; assay type: functional, organism-based
Staphylococcus aureus [6] = experiment: Antimicrobial activity against Staphylococcus aureus assessed as visible growth at 0.65 ug/ml after 24 hrs in presence of 20 uM paraquat; assay type: functional, organism-based
Staphylococcus aureus [7] = experiment: Antimicrobial activity against Staphylococcus aureus expressing mgrA C12S mutant gene assessed as visible growth at 0.55 ug/ml after 24 hrs; assay type: functional, organism-based
Staphylococcus aureus [8] = experiment: Antimicrobial activity against Staphylococcus aureus expressing mgrA C12S mutant gene assessed as visible growth at 0.55 ug/ml after 24 hrs in presence of 20 uM paraquat; assay type: functional, organism-based
Staphylococcus aureus [9] = experiment: Antimicrobial activity against Staphylococcus aureus expressing mgrA C12S mutant gene harboring pYJ335-His-mgrA C12S assessed as highest concentration at which growth was visible after 24 hrs; assay type: functional
Staphylococcus aureus [10] = experiment: Antimicrobial activity against Staphylococcus aureus expressing mgrA C12S mutant gene harboring Pyj335-His-mgrA C12S assessed as highest concentration at which growth was visible after 24 hrs in presence of 20 uM paraquat; assay type: functional
Staphylococcus aureus [11] = experiment: Antimicrobial activity against Staphylococcus aureus expressing mgrA C12S mutant gene harboring plasmid Pyj335 assessed as highest concentration at which growth was visible after 24 hrs; assay type: functional
Staphylococcus aureus [12] = experiment: Antimicrobial activity against Staphylococcus aureus expressing mgrA C12S mutant gene harboring pYJ335 assessed as highest concentration at which growth was visible after 24 hrs in presence of 20 uM paraquat; assay type: functional
Staphylococcus aureus [13] = experiment: Antimicrobial activity against Staphylococcus aureus expressing mgrAC12S mutant gene harboring plasmid Pyj335-His-mgrA C12S assessed as highest concentration at which growth was visible after 24 hrs in presence of 20 uM paraquat; assay type: functional
Staphylococcus aureus [14] = experiment: Antimicrobial activity against Staphylococcus aureus expressing mgrAC12S mutant gene assessed as highest concentration at which growth was visible after 24 hrs; assay type: functional
Staphylococcus aureus [15] = experiment: Antimicrobial activity against Staphylococcus aureus expressing mgrAC12S mutant gene assessed as highest concentration at which growth was visible after 24 hrs in presence of 20 uM paraquat; assay type: functional
Staphylococcus aureus [16] = experiment: Antimicrobial activity against Staphylococcus aureus assessed as highest concentration at which growth was visible after 24 hrs; assay type: functional
Staphylococcus aureus [17] = experiment: Antimicrobial activity against Staphylococcus aureus assessed as highest concentration at which growth was visible after 24 hrs in presence of 20 uM paraquat; assay type: functional
Staphylococcus aureus [18] = experiment: Antimicrobial activity against Staphylococcus aureus expressing mgrA C12S mutant gene harboring Pyj335-His-mgrA assessed as visible growth at 0.20 ug/ml after 24 hrs; assay type: functional, organism-based
Staphylococcus aureus [19] = experiment: Antimicrobial activity against Staphylococcus aureus expressing mgrA C12S mutant gene harboring plasmid Pyj335 assessed as visible growth at 0.20 ug/ml after 24 hrs in presence of 100 uM hydrogen peroxide; assay type: functional, organism-based
Staphylococcus aureus [20] = experiment: Antimicrobial activity against Staphylococcus aureus expressing mgrA C12S mutant gene harboring Pyj335-His-mgrA assessed as visible growth at 0.20 ug/ml after 24 hrs in presence of 25 uM paraquat; assay type: functional, organism-based
Staphylococcus aureus [21] = experiment: Antimicrobial activity against Staphylococcus aureus expressing mgrA C12S mutant gene harboring plasmid Pyj335 assessed as visible growth at 0.35 ug/ml after 24 hrs; assay type: functional, organism-based
Staphylococcus aureus [22] = experiment: Antimicrobial activity against Staphylococcus aureus expressing mgrA C12S mutant gene harboring plasmid Pyj335 assessed as visible growth at 0.55 ug/ml after 24 hrs in presence of 20 uM paraquat; assay type: functional, organism-based
Staphylococcus aureus [23] = experiment: Antimicrobial activity against Staphylococcus aureus expressing mgrA C12S mutant gene harboring plasmid Pyj335 assessed as visible growth at 0.75 ug/ml after 24 hrs; assay type: functional, organism-based
Staphylococcus aureus [24] = experiment: Antimicrobial activity against Staphylococcus aureus expressing mgrA C12S mutant gene harboring Pyj335-His-mgrA assessed as visible growth at 0.45 ug/ml after 24 hrs; assay type: functional, organism-based
Staphylococcus aureus [25] = experiment: Antimicrobial activity against Staphylococcus aureus expressing mgrA C12S mutant gene harboring Pyj335-His-mgrA assessed as visible growth at 0.65 ug/ml after 24 hrs in presence of 20 uM paraquat; assay type: functional, organism-based
Staphylococcus aureus [26] = experiment: Antimicrobial activity against Staphylococcus aureus assessed as visible growth at 0.6 ug/ml after 24 hrs; assay type: functional, organism-based
Staphylococcus aureus [27] = experiment: Antimicrobial activity against Staphylococcus aureus assessed as visible growth at 1 ug/ml after 24 hrs in presence of 20 uM paraquat; assay type: functional, organism-based
Staphylococcus aureus [28] = experiment: Antimicrobial activity against Staphylococcus aureus assessed as visible growth at 1.8 ug/ml after 24 hrs; assay type: functional, organism-based
Staphylococcus aureus [29] = experiment: Antimicrobial activity against Staphylococcus aureus assessed as visible growth at 1.8 ug/ml after 24 hrs in presence of 20 uM paraquat; assay type: functional, organism-based
Staphylococcus aureus [30] = experiment: Antimicrobial activity against Staphylococcus aureus assessed as visible growth at 2.2 ug/ml after 24 hrs; assay type: functional, organism-based
Staphylococcus aureus [31] = experiment: Antimicrobial activity against Staphylococcus aureus assessed as visible growth at 2.6 ug/ml after 24 hrs in presence of 20 uM paraquat; assay type: functional, organism-based
Staphylococcus aureus [32] = experiment: Antimicrobial activity against Staphylococcus aureus expressing mgrA C12S mutant gene assessed as visible growth at 1.4 ug/ml after 24 hrs; assay type: functional, organism-based
Staphylococcus aureus [33] = experiment: Antimicrobial activity against Staphylococcus aureus expressing mgrA C12S mutant gene harboring Pyj335-His-mgrA C12S assessed as visible growth at 1.1 ug/ml after 24 hrs; assay type: functional, organism-based
Staphylococcus aureus [34] = experiment: Antimicrobial activity against Staphylococcus aureus expressing mgrA C12S mutant gene assessed as visible growth at 1.1 ug/ml after 24 hrs; assay type: functional, organism-based
Staphylococcus aureus [35] = experiment: Antimicrobial activity against Staphylococcus aureus assessed as visible growth at 1.1 ug/ml after 24 hrs in presence of 25 uM paraquat; assay type: functional, organism-based
Staphylococcus aureus [36] = experiment: Antimicrobial activity against Staphylococcus aureus expressing mgrA C12S mutant gene harboring Pyj335-His-mgrA C12S assessed as visible growth at 1.1 ug/ml after 24 hrs in presence of 25 uM of paraquat; assay type: functional, organism-based
Staphylococcus aureus [37] = experiment: Antimicrobial activity against Staphylococcus aureus expressing mgrA C12S mutant gene assessed as visible growth at 2.2 ug/ml after 24 hrs in presence of 20 uM paraquat; assay type: functional, organism-based
Staphylococcus aureus [38] = experiment: Antimicrobial activity against Staphylococcus aureus expressing mgrA C12S mutant gene assessed as visible growth at 2.6 ug/ml after 24 hrs; assay type: functional, organism-based
Staphylococcus aureus [39] = experiment: Antimicrobial activity against Staphylococcus aureus expressing mgrA C12S mutant gene harboring plasmid Pyj335 assessed as visible growth at 0.6 ug/ml after 24 hrs in presence of 20 uM paraquat; assay type: functional, organism-based
Staphylococcus aureus [40] = experiment: Antimicrobial activity against Staphylococcus aureus expressing mgrA C12S mutant gene harboring Pyj335-His-mgrA assessed as visible growth at 0.6 ug/ml after 24 hrs in presence of 20 uM paraquat; assay type: functional, organism-based
Staphylococcus aureus [41] = experiment: Antimicrobial activity against Staphylococcus aureus expressing mgrA C12S mutant gene harboring Pyj335-His-mgrA assessed as visible growth at 2.2 ug/ml after 24 hrs in presence of 20 uM paraquat; assay type: functional, organism-based

## O=C(O)c1cn(C2CC2)c2cc(N3CCNCC3)c(F)cc2c1=O [CIPROFLOXACIN]
Staphylococcus aureus [1]
  MIC: 0.35 µg/mL (≈ 1.06 µM)
Staphylococcus aureus [2]
  MIC: 0.7 µg/mL (≈ 2.11 µM)
Staphylococcus aureus [3]
  Activity: Active
Staphylococcus aureus [4]
  Activity: inactive
Staphylococcus aureus [5]
  Activity: Active
Staphylococcus aureus [6]
  Activity: Active
Staphylococcus aureus [7]
  Activity: inactive
Staphylococcus aureus [8]
  Activity: inactive
Staphylococcus aureus [9]
  Activity: 0.35 µg/mL
Staphylococcus aureus [10]
  Activity: 0.35 µg/mL
Staphylococcus aureus [11]
  Activity: 0.65 µg/mL
Staphylococcus aureus [12]
  Activity: 0.65 µg/mL
Staphylococcus aureus [13]
  Activity: 0.55 µg/mL
Staphylococcus aureus [14]
  Activity: 0.65 µg/mL
Staphylococcus aureus [15]
  Activity: 0.65 µg/mL
Staphylococcus aureus [16]
  Activity: 0.25 µg/mL
Staphylococcus aureus [17]
  Activity: 0.45 µg/mL
Staphylococcus aureus [18]
  Activity: Active
Staphylococcus aureus [19]
  Activity: inactive
Staphylococcus aureus [20]
  Activity: Active
Staphylococcus aureus [21]
  Activity: inactive
Staphylococcus aureus [22]
  Activity: inactive
Staphylococcus aureus [23]
  Activity: Active
Staphylococcus aureus [24]
  Activity: Active
Staphylococcus aureus [25]
  Activity: Active

## CN[C@H](CC(C)C)C(=O)N[C@H]1C(=O)N[C@@H](CC(N)=O)C(=O)N[C@H]2C(=O)N[C@H]3C(=O)N[C@H](C(=O)N[C@H](C(=O)O)c4cc(O)cc(O)c4-c4cc3ccc4O)[C@H](O)c3ccc(c(Cl)c3)Oc3cc2cc(c3O[C@@H]2O[C@H](CO)[C@@H](O)[C@H](O)[C@H]2O[C@H]2C[C@](C)(N)[C@H](O)[C@H](C)O2)Oc2ccc(cc2Cl)[C@H]1O [VANCOMYCIN]
Staphylococcus aureus [1]
  MIC: 1.2 µg/mL (≈ 0.828 µM)
Staphylococcus aureus [2]
  MIC: 2.4 µg/mL (≈ 1.66 µM)
Staphylococcus aureus [26]
  Activity: inactive
Staphylococcus aureus [27]
  Activity: inactive
Staphylococcus aureus [28]
  Activity: Active
Staphylococcus aureus [29]
  Activity: Active
Staphylococcus aureus [30]
  Activity: Active
Staphylococcus aureus [31]
  Activity: Active
Staphylococcus aureus [32]
  Activity: inactive
Staphylococcus aureus [9]
  Activity: 1.4 µg/mL
Staphylococcus aureus [10]
  Activity: 1.4 µg/mL
Staphylococcus aureus [11]
  Activity: 2.2 µg/mL
Staphylococcus aureus [12]
  Activity: 2.2 µg/mL
Staphylococcus aureus [13]
  Activity: 1.8 µg/mL
Staphylococcus aureus [14]
  Activity: 2.2 µg/mL
Staphylococcus aureus [15]
  Activity: 2.2 µg/mL
Staphylococcus aureus [16]
  Activity: 1 µg/mL
Staphylococcus aureus [17]
  Activity: 1.4 µg/mL
Staphylococcus aureus [33]
  Activity: Active
Staphylococcus aureus [34]
  Activity: inactive
Staphylococcus aureus [35]
  Activity: Active
Staphylococcus aureus [36]
  Activity: Active
Staphylococcus aureus [37]
  Activity: inactive
Staphylococcus aureus [38]
  Activity: Active
Staphylococcus aureus [39]
  Activity: inactive
Staphylococcus aureus [40]
  Activity: inactive
Staphylococcus aureus [41]
  Activity: Active
